ChEMBL document CHEMBL1201862, “PubChem BioAssay data set” (2004)
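Interpolation was linear, between the two tested concentrations surrounding the appropriate level; five concentrations were tested over 48 hours in 96-well plates. GI50: concentration for 50% inhibition of growth.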 The source made the active and inactive calls. No stated cut-off is given here; in the data, active = GI50 up to about 1.1 µM and inactive = higher.

What was measured:
Assay in all cases: DTP human tumour cell line panel, 48 h
[1] = tested on: MOLT-4
[2] = tested on: SR
[3] = tested on: UACC-257
[4] = tested on: LXFL 529
[5] = tested on: EKVX
[6] = tested on: HOP-92
[7] = tested on: NCI-H226
[8] = tested on: HOP-62
[9] = tested on: K562
[10] = tested on: OVCAR-5
[11] = tested on: A549
[12] = tested on: CCRF-CEM
[13] = tested on: SF-268
[14] = tested on: OVCAR-3
[15] = tested on: SK-MEL-28
[16] = tested on: DMS-273
[17] = tested on: TK-10
[18] = tested on: A498
[19] = tested on: M19-MEL
[20] = tested on: UO-31
[21] = tested on: SK-MEL-2
[22] = tested on: HL-60
[23] = tested on: KM-20L2
[24] = tested on: HOP-18
[25] = tested on: RXF 393
[26] = tested on: U-251
[27] = tested on: 786-0
[28] = tested on: OVCAR-4
[29] = tested on: NCI-H460
[30] = tested on: OVCAR-8
[31] = tested on: M14
[32] = tested on: UACC-62
[33] = tested on: LOX IMVI
[34] = tested on: SNB-78
[35] = tested on: NCI-H23
[36] = tested on: COLO 205
[37] = tested on: RXF 631
[38] = tested on: DMS-114
[39] = tested on: SF-539
[40] = tested on: CAKI-1
[41] = tested on: SK-MEL-5
[42] = tested on: SN12C
[43] = tested on: KM12
[44] = tested on: HCT-15
[45] = tested on: XF498
[46] = tested on: HT-29
[47] = tested on: SNB-19
[48] = tested on: HCC 2998
[49] = tested on: ACHN
[50] = tested on: DLD-1
[51] = tested on: SK-OV-3
[52] = tested on: SNB-75
[53] = tested on: Malme-3M
[54] = tested on: IGROV-1
[55] = tested on: SF-295
[56] = tested on: RPMI-8226
[57] = tested on: HCT-116
[58] = tested on: NCI-H522

In the case of `COC(=O)/C(=N/O)C(C(=O)OC)C(=O)C(=O)Nc1c(Cl)cc(C)cc1S(=O)(=O)O` (stereo not drawn), the GI50 [1] is reported as > 100 µM (inactive), the GI50 [2] is reported as 20.1 µM (inactive) and the GI50 [3] is reported as > 100 µM (inactive). For the same molecule, the GI50 [4] was > 100 µM (inactive), the GI50 [5] was > 100 µM (inactive) and the GI50 [6] was > 100 µM (inactive). The GI50 [7] was > 100 µM (inactive), the GI50 [8] was > 100 µM (inactive) and the GI50 [9] was 67 µM (inactive). For the same molecule, the GI50 [10] was > 100 µM (inactive), the GI50 [11] was > 100 µM (inactive) and the GI50 [12] was 42.8 µM (inactive). For the same molecule, the GI50 [13] was > 100 µM (inactive), the GI50 [14] was > 100 µM (inactive) and the GI50 [15] was > 100 µM (inactive). For the same molecule, the GI50 [16] was 18 µM (inactive), the GI50 [17] was > 100 µM (inactive) and the GI50 [18] was > 100 µM (inactive). The GI50 [19] was > 100 µM (inactive), the GI50 [20] was > 100 µM (inactive) and the GI50 [21] was > 100 µM (inactive). The GI50 [22] was > 100 µM (inactive), the GI50 [23] was > 100 µM (inactive) and the GI50 [24] was > 100 µM (inactive). The GI50 [25] was > 100 µM (inactive), the GI50 [26] was > 100 µM (inactive) and the GI50 [27] was > 100 µM (inactive). The GI50 [28] was > 100 µM (inactive), the GI50 [29] was 41.5 µM (inactive) and the GI50 [30] was > 100 µM (inactive). The GI50 [31] was > 100 µM (inactive), the GI50 [32] was > 100 µM (inactive) and the GI50 [33] was 41 µM (inactive). For the same molecule, the GI50 [34] was > 100 µM (inactive), the GI50 [35] was > 100 µM (inactive) and the GI50 [36] was > 100 µM (inactive). The GI50 [37] was > 100 µM (inactive), the GI50 [38] was 56.1 µM (inactive) and the GI50 [39] was > 100 µM (inactive). For the same molecule, the GI50 [40] was > 100 µM (inactive), the GI50 [41] was > 100 µM (inactive) and the GI50 [42] was > 100 µM (inactive). The GI50 [43] was > 100 µM (inactive), the GI50 [44] was greater than 100 µM and the GI50 [45] was > 100 µM (inactive). For the same molecule, the GI50 [46] was > 100 µM (inactive), the GI50 [47] was > 100 µM (inactive) and the GI50 [48] was > 100 µM (inactive). The GI50 [49] was > 100 µM (inactive), the GI50 [50] was > 100 µM (inactive) and the GI50 [51] was > 100 µM (inactive). For the same molecule, the GI50 [52] was > 100 µM (inactive), the GI50 [53] was > 100 µM (inactive) and the GI50 [54] was > 100 µM (inactive). The GI50 [55] was > 100 µM (inactive), the GI50 [56] was 23.5 µM (inactive) and the GI50 [57] was 43.8 µM (inactive). For the same molecule, the GI50 [58] was 33.5 µM (inactive).
